The text below walks through data of patent US7112607B2, “Allosteric adenosine receptor modulators” (King Pharmaceuticals Research & Development, Inc., priority 1997, dated 2006).

SMILES strings stand for the structures.

This test concerns the target T1, human recombinant A1 adenosine receptors (Homo sapiens, UniProt P30542).
T1 construct: expressed in transfected cells; host or cells: Chinese hamster ovary (CHO) cells, CHO:huA1, G-418 selected
T1 sequence (P30542 1-326): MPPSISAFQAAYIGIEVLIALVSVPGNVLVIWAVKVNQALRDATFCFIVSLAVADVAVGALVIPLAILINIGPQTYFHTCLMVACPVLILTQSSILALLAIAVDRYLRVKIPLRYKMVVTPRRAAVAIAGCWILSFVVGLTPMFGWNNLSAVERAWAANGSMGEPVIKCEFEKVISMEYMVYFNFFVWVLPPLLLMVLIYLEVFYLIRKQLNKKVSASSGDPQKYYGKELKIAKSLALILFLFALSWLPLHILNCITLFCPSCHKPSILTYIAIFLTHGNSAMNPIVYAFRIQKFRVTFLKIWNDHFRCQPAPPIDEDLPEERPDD
Briefly: Allosteric enhancement: reduction of cAMP content of CHO:huA1 cells (radioimmunoassay). The format is cell-based. The note with it: forskolin 1 μM, rolipram 20 μM, CPA 0.01 nM, adenosine deaminase, 6 min at 36° C.; for inhibition at 0.01 µM / inhibition at 0.1 µM / inhibition at 1 µM / inhibition at 10 µM: 0.1 h, read-out: Change in cAMP Content from Control (mean + SEM). Here is the method: Chinese hamster ovary cells expressing human recombinant A1 adenosine receptors (CHO:huA1 cells) at a density of approximately 8000 fmol/mg protein were prepared as previously described (Kollias-Baker et al., (1997), J. Pharmacol. Exp. Ther. 281: 761–768) and aliquots of the cells at low passage numbers were frozen and stored in liquid nitrogen. When compounds were tested, an aliquot of CHO:huA1 cells were rapidly thawed after removal from liquid nitrogen, then grown in Ham's F12 culture medium with 10% fetal bovine serum and 0.5 mg/mL of antibiotic G-418 (Shryock, Ozeck, and Belardinelli (1998), Mol. Pharmacol 53: 886–893). Cells were passaged thrice weekly. Aliquots of cells were placed into 12-well plates with culture medium, serum, and antibiotic for 48 hours, by which time the cells had grown to a confluent monolayer.
Allosteric enhancement was measured as the action of a test compound at different concentrations (0.01, 0.1, 1 and 10 μM) to reduce the cAMP content of CHO:huA1 cells. To initiate an experiment, growth medium was removed from the 12-well plates and cells were washed once with warm Hanks' buffered saline. The wash solution was then removed and replaced with fresh Hanks' solution containing forskolin (1 μM), rolipram (20 μM), N^6-cyclopentyladenosine (CPA, 0.01 nM), adenosine deaminase (2 U/mL), and the test compound. Forskolin was used to stimulate the activity of adenylyl cyclase, rolipram to inhibit cAMP phosphodiesterase, adenosine deaminase to degrade endogenous adenosine, and CPA to cause a small increase of the number of activated adenosine receptors. After 6 min of incubation at 36° C. in the presence of test compound, the incubation solution was removed and hydrochloric acid (final concentration 50 mM) was added to terminate drug action.
The content of cAMP in acidified extracts of cells was determined by radioimmunoassay as previously described (Kollias-Baker et al., (1997), J. Pharmacol. Exp. Ther. 281: 761–768). Because the magnitude of the effects of allosteric enhancers on CHO:huA1 cells changed subtly with passage number and differed slightly among different aliquots of cells, the actions of the test compounds and the action of a reference compound (PD 81,723) were assessed in each experiment. The effect of each test compound on cAMP content is presented in Table 1 as a percentage of the value of cAMP content in the absence of drug (control, 100%). Each value is a mean±standard error of 6 determinations in each of the number of experiments indicated in the “n” column of the table.

As for `Cc1sc(N)c(C(=O)c2ccccn2)c1C` [Example 21, (2-Amino-4,5-dimethylthiophen-3-yl)-pyridin-2-yl-methanone], under “0.01 μM test compound”, the inhibition at 0.01 µM is -0.7 ± 3%. Moreover, the inhibition at 0.1 µM (0.1 μM test compound) was 8 ± 3%. Where the note is “1 μM test compound”, the inhibition at 1 µM is -4 ± 4%. The inhibition at 10 µM (10 μM test compound) is -14 ± 4%.

On to `Nc1sc2c(c1C(=O)c1ccc(Br)c3ccccc13)CCC2` [Example 22, (2-Amino-5,6-dihydro-4H-cyclopenta[b]thiophen-3-yl)-(4-bromonaphthalen-1-yl)-methanone], for which the inhibition at 0.01 µM (0.01 μM test compound) was -3 ± 3%. Besides, the inhibition at 0.1 µM (0.1 μM test compound) was -19 ± 5%. Further, under “1 μM test compound”, the inhibition at 1 µM worked out at 14 ± 5%. Where the note is “10 μM test compound”, the inhibition at 10 µM was 67 ± 3%.

Consider `COc1ccc(C(=O)c2c(N)sc3c2CCC3)c2ccccc12` [Example 23], for which the “Change in cAMP Content from Control (mean + SEM)” value (“Change … (mean + SEM)” for short) was −6 ± 3% (0.01 μM test compound), −3 ± 4% (0.1 μM test compound), −8 ± 4% (1 μM test compound) and −35 ± 3% (10 μM test compound).

`Nc1sc2c(c1C(=O)c1ccc(I)c3ccccc13)CCC2` [Example 24, (2-Amino-1,6-dihydro-4H-cyclopenta[b]thiophen-3-yl)-(4-iodonaphthalen-1-yl)-methanone]: where the note is “0.01 μM test compound”, the inhibition at 0.01 µM is 6 ± 3%. Moreover, under “0.1 μM test compound”, the inhibition at 0.1 µM turned out to be 8 ± 3%. Moreover, where the note is “1 μM test compound”, the inhibition at 1 µM is 22 ± 4%. For the same molecule, the inhibition at 10 µM (10 μM test compound) stood at 75 ± 1%.

Take `Nc1sc2c(c1C(=O)c1ccc(Cl)c3ccccc13)CCC2` [Example 25, (2-Amino-5,6-dihydro-4H-cyclopenta[b]thiophen-3-yl)-(4-chloronaph-thalen-1-yl)-methanone]: the “Change … (mean + SEM)” value (0.01 μM test compound) is −10 ± 2%, the “Change … (mean + SEM)” value (0.1 μM test compound) is listed as −15 ± 4%, the “Change … (mean + SEM)” value (1 μM test compound) is on record as −27 ± 2% and the “Change … (mean + SEM)” value (10 μM test compound) is on record as −55 ± 2%.

Regarding `Nc1sc2c(c1C(=O)c1ccc(I)c3ccccc13)CCCC2` [Example 26, (2-Amino-4,5,6,7-tetrahydrobenzo[b]thiophen-3-yl)-(4-iodonaphthalen-1-yl)-methanone], under “0.01 μM test compound”, the inhibition at 0.01 µM was 3 ± 4%. The inhibition at 0.1 µM (0.1 μM test compound) was found to be 4 ± 4%. The inhibition at 1 µM (1 μM test compound) came to 24 ± 5%. Moreover, where the note is “10 μM test compound”, the inhibition at 10 µM stood at 67 ± 2%.

`COc1ccc(C(=O)c2c(N)sc3c2CCCC3)c2ccccc12` [Example 27, (2-Amino-4,5,6,7-tetrahydrobenzo[b]thiophen-3-yl)-(4-methoxynaph-thalen-1-yl)-methanone]: the “Change … (mean + SEM)” value (0.01 μM test compound) is 5 ± 4%, the “Change … (mean + SEM)” value (0.1 μM test compound) is −5 ± 4%, the “Change … (mean + SEM)” value (1 μM test compound) is reported as −3 ± 3% and the “Change … (mean + SEM)” value (10 μM test compound) is listed as −17 ± 1%.

On to `Nc1sc2c(c1C(=O)c1ccc(Cl)c3ccccc13)CCCC2` [Example 28, (2-Amino-4,5,6,7-tetrahydrobenzo[b]thiophen-3-yl)-(4-chloronaphthalen-1-yl)-methanone], for which, where the note is “0.01 μM test compound”, the inhibition at 0.01 µM was determined as 11 ± 3%. Also, under “0.1 μM test compound”, the inhibition at 0.1 µM is -3 ± 3%. Moreover, the inhibition at 1 µM (1 μM test compound) turned out to be 25 ± 4%. In addition, for the setting “10 μM test compound”, the inhibition at 10 µM came to 44 ± 2%.

As for `Nc1sc2c(c1C(=O)c1ccc(Br)c3ccccc13)CCCC2` [Example 29, (2-Amino-4,5,6,7-tetrahydrobenzo[b]thiophen-3-yl)-(4-bromonaphthalen-1-yl)-methanone], the inhibition at 0.01 µM (0.01 μM test compound) amounted to 6 ± 3%. Besides, where the note is “0.1 μM test compound”, the inhibition at 0.1 µM was 10 ± 2%. The inhibition at 1 µM (1 μM test compound) came to 29 ± 2%. Further, for the setting “10 μM test compound”, the inhibition at 10 µM was determined as 72 ± 1%.

With `Nc1sc2c(c1C(=O)c1ccc3ccccc3c1)CCCC2` [Example 30, (2-Amino-4,5,6,7-tetrahydrobenzo[b]thiophen-3-yl)-naphthalen-2-yl-methanone], under “0.01 μM test compound”, the inhibition at 0.01 µM is 13 ± 4%. For the same molecule, the inhibition at 0.1 µM (0.1 μM test compound) was 24 ± 3%. Further, the inhibition at 1 µM (1 μM test compound) was 28 ± 2%. Also, the inhibition at 10 µM (10 μM test compound) amounted to 42 ± 3%.

`Nc1sc2c(c1C(=O)c1ccc3ccccc3c1)CCC2` [Example 31, (2-Amino-5,6-dihydro-4H-cyclopenta[b]thiophen-3-yl)-naphthalen-2-yl-methanone]: under “0.01 μM test compound”, the inhibition at 0.01 µM turned out to be 19 ± 3%. The inhibition at 0.1 µM (0.1 μM test compound) amounted to 14 ± 4%. Where the note is “1 μM test compound”, the inhibition at 1 µM stood at 15 ± 3%. The inhibition at 10 µM (10 μM test compound) was determined as 51 ± 3%.

As for `Nc1sc2c(c1C(=O)c1ccc3ccccc3c1)CCN(Cc1ccccc1)C2` [Example 32, (2-Amino-6-benzyl-4,5,6,7-tetrahydrothieno[2,3-c]pyridin-3-yl)-naphthalen-2-yl-methanone], the inhibition at 0.01 µM (0.01 μM test compound) turned out to be 11 ± 4%. Also, the inhibition at 0.1 µM (0.1 μM test compound) was 12 ± 3%. Besides, the inhibition at 1 µM (1 μM test compound) came to 18 ± 3%. Besides, the inhibition at 10 µM (10 μM test compound) was 60 ± 4%.

In the case of `Cc1sc(N)c(C(=O)c2ccc3ccccc3c2)c1C` [Example 33, (2-Amino-4,5-dimethylthiophen-3-yl)-naphthalen-2-yl-methanone], the inhibition at 0.01 µM (0.01 μM test compound) is 1 ± 3%. Besides, the inhibition at 0.1 µM (0.1 μM test compound) was 4 ± 3%. For the same molecule, the inhibition at 1 µM (1 μM test compound) is 8 ± 3%. Besides, for the setting “10 μM test compound”, the inhibition at 10 µM amounted to 28 ± 3%.

In the case of `Cc1sc(N)c(C(=O)c2cccc(C(F)(F)F)c2)c1C` [PD 81,723, reference compound], the “Change … (mean + SEM)” value reads like this: (0.01 μM test compound) −1 ± 2%; (0.1 μM test compound) −7 ± 2%; (1 μM test compound) −13 ± 1%; (10 μM test compound) −50 ± 1%.
